Counter-ions that a name gives are not always drawn.
Tests used:
[1] = system: systemic blood pressure; assay: Reduction of systemic blood pressure (Experiment 2(a)); assay type: in vivo, beagle (anesthetized); conditions: intravenous; for inhibition in vivo at 0.025 mg/kg: Canis lupus familiaris, Table 2, read-out: Average percent reduction in blood pressure; for Average low pressure retention time: Table 3
Experimental: A beagle was anesthetized by intravenous injection of sodium pentobarbital and under artificial respiration an incision was made in the chest.
1. Systemic blood pressure (SBP): The SBP was measured by a pressure transducer that was connected to a catheter inserted into the right femoral artery.

[2] = system: heart rate; assay: Change in heart rate (Experiment 2(b)); assay type: in vivo, beagle (anesthetized); conditions: for Percent change in heart rate: Table 4, Experiment 2; for effect on heart rate (time course): in words
Experimental: A beagle was anesthetized by intravenous injection of sodium pentobarbital and under artificial respiration an incision was made in the chest. The various actions of Compounds 1, 2, 3, 5 and 7 of the present invention were checked by the following procedures:
2. Heart rate (HR): The HR was measured by a cardiotachometer using the pulse wave of blood pressure as trigger pulse.
As for the compounds of the present invention, a temporary increase was followed by a gradual decrease which started almost at the same time when a second phase reduction in blood pressure occurred (see FIG. 1).

[3] = system: systemic blood pressure; assay: Neurogenic hypertension by artery obstruction/stricture (Experiment 3); assay type: in vivo, beagle (hypertensive); conditions: intravenous, 25 μg/Kg; FIG. 2, FIG. 3
Experimental: Hypertension was induced in a beagle by exciting the sympathetic nerve due to an obstruction of the bilateral vertebral artery and right common carotid artery, as well as a stricture of the left common carotid artery. The beagle was treated intravenously with 25 μg/Kg of Compounds 1 and 2.

[4] = system: blood pressure; assay: Blood pressure in unanesthetized SHR rats (Experiment 4); assay type: in vivo; conditions: oral, 10 mg/Kg; for blood pressure after dosing: 180±5.0 mmHg just before administration
Experimental: Unanesthetized SHR rats (five rats per group) were administered orally 10 mg/Kg of Compound 1.

[5] = Acute toxicity, oral administration to rats for fourteen consecutive days; assay type: in vivo, male SD strain rats; conditions: 400 mg/Kg, as hydrochloride, male SD rats
Experimental: The acute toxicity of Compounds Preparation Nos. 1 to 15 was examined by the oral administration of them to male SD strain rats (five rats per group) for fourteen consecutive days. All compounds had low toxicity and none supressed weight gain. No rat died upon administration of Compound 1 or 2 (both as hydrochloride) in a dose of 400 mg/Kg.

SMILES	Percent change in heart rate [2]	inhibition in vivo at 0.025 mg/kg ([1]; 25 μg/kg)	Average low pressure retention time ([1]; 25 μg/kg)	change in systemic blood pressure (time course, FIG. 1) ([1]; 25 μg/kg, in words)	other results
NNc1nncc2ccccc12 [A, hydralazine hydrochloride, reference compound]	–	–	–	–	significant reduction in blood pressure ([1]; 25 μg/Kg, in words): did not exhibit significant reduction in blood pressure
COc1ccccc1N1CCN(CCCCCO)CC1 [B, reference compound]	9.9%	16.1%	15.0 min	–	–
COc1ccccc1N1CCN(CCCCCCO)CC1 [C, reference compound]	8.1%	12.6%	14.4 min	–	–
CCOC(=O)CCCCCCN1CCN(c2ccccc2OC)CC1 [Compound 1, 1-(6-ethoxycarbonylhexyl)-4-(o-methoxyphenyl)piperazine]	-9.6%	25.5%	47.3 min	the initial temporary reduction was followed by a reduction in the second phase, and the systemic blood pressure was maintained low thereafter	extension of low pressure retention time, hypertensive vs normal beagle [3]: more effective; reduction of heart rate, hypertensive vs normal beagle [3]: more effective; reduction of systemic blood pressure, hypertensive vs normal beagle [3]: more effective; blood pressure after dosing ([4]; 1 h): 127±11.6 mmHg; blood pressure after dosing ([4]; 2 h): 137±7.6 mmHg; duration of reduced blood pressure ([4]; in words): maintained at the reduced level for a satisfactorily long time; deaths upon administration [5]: No rat died; period of maintained low blood pressure compared with the others ([1]; 25 μg/kg, in words): maintained the blood pressure at low level for a longer period than did the others
CCOC(=O)CCCCCN1CCN(c2ccccc2OC)CC1 [Compound 2, 1-(5-ethoxycarbonylpentyl)-4-(o-methoxyphenyl)piperazine]	-1.6%	22.4%	20.0 min	the initial temporary reduction was followed by a reduction in the second phase, and the systemic blood pressure was maintained low thereafter	extension of low pressure retention time, hypertensive vs normal beagle [3]: more effective; reduction of heart rate, hypertensive vs normal beagle [3]: more effective; reduction of systemic blood pressure, hypertensive vs normal beagle [3]: more effective; deaths upon administration [5]: No rat died
CCOC(=O)CCCCCCN1CCN(c2ccccc2OC(C)C)CC1 [Compound 3, 1-(6-ethoxycarbonylhexyl)-4-(o-isopropyloxyphenyl)piperazine]	-4.0%	22.1%	22.4 min	–	–
COC(=O)CCCCCCN1CCN(c2ccccc2OC)CC1 [Compound 5, 1-(6-methoxycarbonylhexyl)-4-(o-methoxyphenyl)piperazine]	-2.2%	23.1%	18.6 min	–	–
CCOC(=O)CCCCN1CCN(c2ccccc2OC)CC1 [Compound 7, 1-(4-ethoxycarbonylbutyl)-4-(o-methoxyphenyl)piperazine]	13.2%	19.1%	13.4 min	the initial temporary reduction was followed by a reduction in the second phase, and the systemic blood pressure was maintained low thereafter	–
COc1ccccc1N1CCN(CCCCCCCO)CC1 [D, reference compound]	-9.1%	14.3%	22.5 min	–	–
CCOC(=O)CCN1CCN(c2ccccc2OC)CC1 [E, reference compound]	16.8%	15.1%	6.8 min	only temporary	effect on heart rate (time course) [2]: first increased the heart rate and thereafter the increased heart rate gradually returned to the normal level
CCOC(=O)CCCN1CCN(c2ccccc2OC)CC1 [F, reference compound]	11.2%	15.2%	8.8 min	only temporary	effect on heart rate (time course) [2]: first increased the heart rate and thereafter the increased heart rate gradually returned to the normal level

Reference: US4438115A, “Compositions and methods for treating diseases in circulatory organs” (Chugai Seiyaku Kabushiki Kaisha, priority 1980, dated 1984)
